Laboratory results taken from publication PMC5442124 (Scientific Reports, 2017).

Tests used:
[1] = Bioaccumulation of DDTs in carp and carp tissues/organs in DDT spiked-sediment microcosm (food web); format: in vivo, Cyprinus carpio; conditions: treatment group; for concentration at 9 day / concentration at 28 days: Cyprinus carpio (carp), other: spiked sediment-water system with T. tubifex as prey; for concentration at 9 day: whole fish (wet weight), whole carp, read-out: concentration in carp at steady state; for maximum concentration in gastrointestinal tract: first 5 days; for concentration at 28 days: brain, end of the experiments
Procedure: (§1) The sediment was prepared in a glass aquarium with 3.6 kg soil (collected from China Agricultural University, and the physicochemical properties of the soil were as follows: clay, 34.8 ± 0.1%; silt, 10.0 ± 2.8%; sand, 55.2 ± 2.8%; organic matter, 24.4 ± 0.8 g/kg; and pH, 7.74 ± 0.05.) and 16 L de-chlorinated tap water, and incubated for seven days. The overlying water was discarded, and 400 g sediment (dry weight) was spiked with o,p’-DDT (50 ng/μL, 1600 μL) and p,p’-DDT (50 ng/μL, 1600 μL) in acetone. After the solvent was volatilized, the sediment was blended with the 3.6 kg sediment (dry weight) thoroughly. Dechlorinated tap water was added, and system was allowed to equilibrate for 48 h.
Environmentally relevant concentration exposure was conducted according to Organization for Economic Cooperation and Development (OECD section 305 and 315) test guidelinesn, [52]. […] T. tubifex is one of the most widespread and ubiquitous groups, which was considered to be a good bio-indicator[53], [54]. Carp are omnivorous demersal fish in fresh water ecosystems, which can serve as bio-indicators of environmental contaminants and play significant roles in assessing potential risk[44]. Adult T. tubifex and carp (2.0 ± 0.2 g, about 5 cm in length, ignore the gender) were obtained from Guan Yuan market (Beijing, China) and acclimatized in the laboratory for 2 weeks. T. tubifex (80 g) and ten fish were added into the sediment-water system for the exposure experiment. Twenty-seven glass aquariums with spiked sediment were cultivated at 14 h/10 h photoperiods and at 20 ± 2 °C for 28 days (nine aquariums were used to analyze the individual fish and T. tubifex worms, eighteen aquariums were used to analyze the tissue distribution and toxic effects). The overlying water was gently aerated and unchanged. Overlying water, fish (one from each aquariums), worms (about 1 g) and sediment were sampled on the 1st, 3ed, 5th, 9th, 14th, 21st, and 28th day. At the end of bioaccumulation experiments, all the fish and worms were transferred to un-spiked sediment for elimination experiments, respectively. Overlying water, fish (one from each aquariums), worms (about 1 g) and sediment were sampled on the 1st, 3ed, 5th, 7th, and 10th day. […] Fish were euthanized with an ice/water mixture.
(§2) The different tissues/organs of carp were extracted with different methods. Details of the extraction process please refer to the Supplementary Material. The lipid content of animals was measured according to Bligh and Dyer[55]. […] Details please refer to the Supplemental Material.

[2] = Bioaccumulation of DDTs in T. tubifex in DDT spiked-sediment microcosm; format: in vivo; conditions: for concentration at 28 day: Tubifex tubifex, whole worm (wet weight), other: exposure in spiked sediment-water system, day 28; for concentration at 28 day / maximum concentration in T. tubifex: treatment group; for maximum concentration in T. tubifex: fifth day
Procedure: as §1
(§3) Environmentally relevant concentration exposure was conducted according to Organization for Economic Cooperation and Development (OECD section 305 and 315) test guidelinesn, [52]. Tubifex tubifex (Oligochaeta, Tubificidae) was chosen as prey, which could accumulate DDTs from sediment and transfer them to carp (Cyprinus carpio). T. tubifex is one of the most widespread and ubiquitous groups, which was considered to be a good bio-indicator[53], [54]. Carp are omnivorous demersal fish in fresh water ecosystems, which can serve as bio-indicators of environmental contaminants and play significant roles in assessing potential risk[44]. Adult T. tubifex and carp (2.0 ± 0.2 g, about 5 cm in length, ignore the gender) were obtained from Guan Yuan market (Beijing, China) and acclimatized in the laboratory for 2 weeks. T. tubifex (80 g) and ten fish were added into the sediment-water system for the exposure experiment. Twenty-seven glass aquariums with spiked sediment were cultivated at 14 h/10 h photoperiods and at 20 ± 2 °C for 28 days (nine aquariums were used to analyze the individual fish and T. tubifex worms, eighteen aquariums were used to analyze the tissue distribution and toxic effects). The overlying water was gently aerated and unchanged. Overlying water, fish (one from each aquariums), worms (about 1 g) and sediment were sampled on the 1st, 3ed, 5th, 9th, 14th, 21st, and 28th day. At the end of bioaccumulation experiments, all the fish and worms were transferred to un-spiked sediment for elimination experiments, respectively. Overlying water, fish (one from each aquariums), worms (about 1 g) and sediment were sampled on the 1st, 3ed, 5th, 7th, and 10th day. […] Fish were euthanized with an ice/water mixture.
The control treatments (twenty-seven glass aquariums: nine aquariums were used to analyze the individual fish and T. tubifex worms, eighteen aquariums were used to analyze the tissue distribution and toxic effects) were composed of worms, fish and un-spiked sediment. The cultivation, sample time and dissection procedures were the same to the exposure experiments.
as §2

[3] = Elimination of DDTs from carp and carp tissues/organs after transfer to un-spiked sediment; format: in vivo, Cyprinus carpio; conditions: for elimination percentage in heart: carp heart; for percentage eliminated from brain: carp brain; for percentage eliminated from brain / percentage eliminated from kidney: end of experiments; for elimination percentage from gallbladder: carp gallbladder; for percentage eliminated from kidney: carp kidney
Procedure: as §3, §2

[4] = Elimination of DDTs in T. tubifex after transfer to un-spiked sediment; format: in vivo; conditions: elimination experiment in un-spiked sediment
Procedure: as §3, §2

[5] = parameters: method as in PMID 14194764; conditions: after 6 days’ dietary exposure to DDT (1500 μg/g); cited from earlier work
aquatic life = test system: aquatic life; parameters: method as in earlier work; conditions: Canadian Sediment Quality Guidelines for the protection of aquatic life; cited from earlier work
[6] = rainbow trout exposed in water; cited from earlier work

Row | SMILES | concentration in brain (maximum) ([1]; carp, 9th day) [ng/gwwt] | maximum concentration in T. tubifex [2] [ng/gwwt] | elimination percentage in heart [3] [%] | elimination efficiency in T. tubifex [4] [%] | percentage eliminated from brain [3] [%] | elimination percentage from gallbladder [3] [%] | percentage eliminated from kidney [3] [%] | concentration at 28 days ([1]; carp) [ng/g] | further results
1 | Clc1ccc(C(c2ccccc2Cl)C(Cl)(Cl)Cl)cc1 (centres unmarked) [o,p’-DDT] | 40.3 ± 1.8 | 74.6 ± 1.8 | 51.9 | 65.7 | – | – | – | – | concentration at 9 day ([1]; 9th day): 39.1 ± 0.3 ng/g; maximum concentration in kidney ([1]; carp, 9th day): 96.2 ± 2.0 ng/gwwt; maximum concentration in gastrointestinal tract ([1]; carp): 40.9 ± 0.9 ng/gwwt; concentration at 28 day [2]: 5.6 ± 0.1 ng/g
2 | ClC(Cl)=C(c1ccc(Cl)cc1)c1ccccc1Cl [o,p’-DDE] | 3.1 ± 0.1 | 2.1 ± 0.2 | – | 39.5 | 55.0 | 24.1 | 47.5 | – | –
3 | Clc1ccc(C(c2ccc(Cl)cc2)C(Cl)(Cl)Cl)cc1 [p,p’-DDT] | 49.1 ± 1.0 | 165.5 ± 2.7 | – | 73.6 | – | – | – | – | concentration at 9 day ([1]; 9th day): 57.3 ± 3.1 ng/g; maximum concentration in kidney ([1]; carp, 9th day): 124.0 ± 2.6 ng/gwwt; maximum concentration in gastrointestinal tract ([1]; carp): 43.2 ± 0.5 ng/gwwt; concentration at 28 day [2]: 18.4 ± 2.2 ng/g
4 | Clc1ccc(C(c2ccccc2Cl)C(Cl)Cl)cc1 (centres unmarked) [o,p’-DDD] | – | – | 72.5 | 49.0 | 65.5 | 66.9 | 65.4 | 45.7 ± 0.3 | maximum concentration in kidney ([1]; carp, 28th day): 73.5 ± 1.9 ng/gwwt
5 | Clc1ccc(C(c2ccc(Cl)cc2)C(Cl)Cl)cc1 [p,p’-DDD] | – | – | 69.6 | 58.2 | 61.4 | 64.1 | 63.9 | 68.4 ± 0.6 | maximum concentration in kidney ([1]; carp, 28th day): 89.9 ± 3.7 ng/gwwt
6 | Clc1ccc(C(c2ccc(Cl)cc2)C(Cl)(Cl)Cl)cc1 [DDT, Dichlorodiphenyltrichloroethane] | – | – | – | – | – | – | – | – | ratio DDT:DDD:DDE detected in the livers of rats [5]: approximately 3; effects range-low (ERL) value in sediments (aquatic life): 1 ng/g
7 | Oc1c(Cl)c(Cl)c(Cl)c(Cl)c1Cl [pentachlorophenol] | – | – | – | – | – | – | – | – | dose eliminated in feces and bile [6]: 30%; dose eliminated in urine [6]: 20%; dose eliminated through the gills [6]: 50%
8 | ClC(Cl)=C(c1ccc(Cl)cc1)c1ccc(Cl)cc1 [p,p’-DDE] | – | 21.7 ± 0.8 | 59.9 | 25.7 | 52.8 | 50.8 | 48.7 | 41.6 ± 0.5 | highest concentration in kidney ([1]; carp, 21st day): 46.9 ± 0.6 ng/gwwt; maximum concentration in muscle ([1]; carp, 21st day): 11.7 ± 2.6 ng/gwwt; maximum concentration in T. tubifex, control group ([2]; control group (un-spiked sediment), 14th day): 28.2 ± 1.1 ng/gwwt
